Measured values taken from patent publication US7109243B2 (IRM LLC, priority 2003, dated 2006).

Tests used:
Cathepsin S = Cathepsin S (Homo sapiens, UniProt P25774); test: Cathepsin S inhibition assay (fluorogenic peptide substrate); type: biochemical; settings: Table II, compounds of Formula I; read-out: Ki Cat. S
Method in brief: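 Ki values come from nonlinear fitting of inhibited hydrolysis rates, taking free and total inhibitor concentrations as equal. Rates measured as rising fluorescence at 380/450 nm after reaction start with 50 μM final acetyl-HPVK-aminocarbamoylcoumarin.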

Cathepsin K = target: T1, Cathepsin K (Homo sapiens, UniProt P43235); test: Cathepsin K inhibition assay (fluorogenic peptide substrate); selectivity ratio vs cathepsin S; type: biochemical; settings: ratio of cathepsin K inhibition constant to cathepsin S inhibition constant; Table II
T1 sequence (P43235 115-329): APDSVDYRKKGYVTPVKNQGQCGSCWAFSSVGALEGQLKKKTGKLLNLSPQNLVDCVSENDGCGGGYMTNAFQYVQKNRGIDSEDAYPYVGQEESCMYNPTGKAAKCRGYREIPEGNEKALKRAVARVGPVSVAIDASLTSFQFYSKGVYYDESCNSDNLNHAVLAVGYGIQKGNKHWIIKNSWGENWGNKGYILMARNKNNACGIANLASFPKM
Method in brief: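 Inhibition constants for competitive inhibitors come from apparent values fitted to enzyme progress curves. Substrate, acetyl-Lys-His-Pro-Lys-aminocarbamoylcoumarin (40 μM final), starts the reaction; fluorescence rise read at 380 nm excitation, 450 nm emission. Selectivity ratio: other cathepsin constant over cathepsin S constant.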

Cathepsin S, sequence (P25774 115-331, species assumed): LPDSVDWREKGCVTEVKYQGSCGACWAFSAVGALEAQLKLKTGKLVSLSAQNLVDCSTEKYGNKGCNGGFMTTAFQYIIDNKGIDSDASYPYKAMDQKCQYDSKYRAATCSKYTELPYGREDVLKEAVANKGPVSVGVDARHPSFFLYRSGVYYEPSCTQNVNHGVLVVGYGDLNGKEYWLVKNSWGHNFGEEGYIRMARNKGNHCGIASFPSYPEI

| SMILES | Ki (Cathepsin S) [nM] | Selectivity for Cat. S over Cat. K (Cathepsin K) |
| --- | --- | --- |
| COc1ccc(NCCNC(=O)[C@H](Cc2ccccc2)NC(=O)c2cccc(C#N)c2)cc1 [Compound 55, (S)-3-Cyano-N-{1-[2-(4-methoxy-phenylamino)-ethylcarbamoyl]-2-phenyl-ethyl}-benzamide] | < 1000 | ++ (++, >100) |
| COc1ccc(NCCNC(=O)[C@H](Cc2ccc(Oc3cccc(Cl)c3)cc2)NC(=O)c2cccc(C)c2)cc1 [Compound 329, (S)-N-{2-[4-(3-Chloro-phenoxy)-phenyl]-1-[2-(4-methoxy-phenylamino)-ethylcarbamoyl]-ethyl}-3-methyl-benzamide] | < 1000 | ++ (++, >100) |
| COc1ccc(NCCNC(=O)[C@H](Cc2ccc(-c3cccc(CO)c3)cc2)NC(=O)c2cccc(C)c2)cc1 [Compound 284, (S)-N-{2-(3′-Hydroxymethyl-biphenyl-4-yl)-1-[2-(4-methoxy-phenylamino)-ethylcarbamoyl]-ethyl}-3-methyl-benzamide] | < 1000 | ++ (++, >100) |
| COc1ccc(NCCNC(=O)[C@H](Cc2ccccc2)NC(=O)c2cccnc2)cc1 [Compound 63, (S)-N-{1-[2-(4-Methoxy-phenylamino)-ethylcarbamoyl]-2-phenyl-ethyl}-nicotinamide] | < 10000 | + (+, >10) |
| COc1ccc(NCCNC(=O)C(NC(=O)c2ccc(-c3cccc(C(F)(F)F)c3)o2)c2ccccc2)cc1 (racemic) [Compound 9, (±)-N-((2-(4-methoxyphenylamino)ethylcarbamoyl)(phenyl)-methyl)-5-(3-(trifluoromethyl)phenyl)furan-2-carboxamide] | < 1000 | + (+, >10) |

The next lines start with the values.

| Ki (Cathepsin S) [nM] | Selectivity for Cat. S over Cat. K (Cathepsin K) | SMILES |
| --- | --- | --- |
| < 100 | +++ (+++, >1000) | O=C(N[C@@H](CC1CCCCC1)C(=O)NCCNc1ccc(OC(F)(F)F)cc1)c1ccc(-c2ccc(OC(F)(F)F)cc2)o1 [Compound 215, (S)-5-(4-Trifluoromethoxy-phenyl)-furan-2-carboxylic acid {2-cyclohexyl-1-[2-(4-trifluoromethoxy-phenylamino)-ethylcarbamoyl]-ethyl}-amide] |
| < 100 | +++ (+++, >1000) | COc1ccc(NCCNC(=O)[C@H](Cc2ccc(-c3ccsc3)cc2)NC(=O)c2cccc(C)c2)cc1 [Compound 275, (S)-N-[1-[2-(4-Methoxy-phenylamino)-ethylcarbamoyl]-2-(4-thiophen-3-yl-phenyl)-ethyl]-3-methyl-benzamide] |
| < 100 | +++ (+++, >1000) | COc1ccc(NCCNC(=O)[C@H](Cc2ccc(-c3cccc(C(C)=O)c3)cc2)NC(=O)c2cccc(C)c2)cc1 [Compound 290, (S)-N-{2-(3′-Acetyl-biphenyl-4-yl)-1-[2-(4-methoxy-phenylamino)-ethylcarbamoyl]-ethyl}-3-methyl-benzamide] |
| < 100 | + (+, >10) | CS(=O)(=O)Nc1ccc(C(=O)N[C@@H](CC2CCCCC2)C(=O)NCCNc2ccc(F)cc2)cc1 [Compound 299, N-(S)-{2-cyclohexyl-1-[2-(4-fluoro-phenylamino)-ethylcarbamoyl]-ethyl}-4-methanesulfonylamino-benzamide] |
